Laboratory results as given in patent US4264590A, “Antibacterial peptide” (Abbott Laboratories, priority 1980, dated 1981).

Legend:
E. coli (305-101) = assay: mouse protection test, CD50 (Table III); assay type: in vivo
Method: (§1) Charles River mice, weighing approximately 20 g. each, are infected intraperitoneally with 10-100 times the LD of the infecting organism. At predetermined intervals post-infection, e.g., 1 and 5 hours, mice are dosed subcutaneously with graded doses of the halogenated peptide, antibiotic and combination thereof. The number of mice surviving each treatment for 7 days post-infection is observed and the CD50 is calculated. The fractional inhibitory concentration (F.I.C.) for each combination is calculated in the usual manner.
(§2) In this table, the following infecting microorganisms were used:
(§3) The infecting organisms are listed by the above code; the compounds are listed by their Example number. In all instances, the dipeptide and D-cycloserine were tested at a ratio of 10:1. The CD50 combination column lists only the amount of peptide present; the D-cycloserine amount is 10% of the listed amount.

E. coli (Juhl) [1] = assay: two-fold agar dilution assay, M.I.C.; assay type: cell-based; details: for MIC: Escherichia coli, substance alone, agar dilution, read-out: minimum inhibitory concentration (M.I.C.)
Text: (§4) In a two-fold agar dilution assay with E. coli (Juhl) and E. coli 6880 as test organisms, compounds of Examples 1 and 2 show a minimum inhibitory concentration (M.I.C.) of >800 ppm. […] The combination of the new peptide with D-cycloserine produces the following M.I.C. test results.

E. coli 6880 = assay: two-fold agar dilution assay, M.I.C.; assay type: cell-based; details: for MIC: Escherichia coli, substance alone, agar dilution, read-out: minimum inhibitory concentration (M.I.C.)
Text: as §4

Strep. pyrogenes (C 203) = assay: mouse protection test, CD50 (Table III); assay type: in vivo
Method: as §1, §2
Strep. pyrogenes (C 203).
as §3

S. aureus (Smith) = assay: mouse protection test, CD50 (Table III); assay type: in vivo; details: for F.I.C. Index / CD50 (mg/kg) Combination: S. aureus (Smith) in mice, dipeptide:D-cycloserine 10:1; for CD50 (mg/kg) Combination: amount of peptide only listed, D-cycloserine is 10% of it; for CD50 (mg/kg) Peptide: mice infected i.p. with S. aureus (Smith), dosed subcutaneously, 7 days survival, peptide alone
Method: as §1, §2, §3

E. coli (Juhl) [2] = assay: serial dilution in synthetic medium in test tubes, MIC and F.I.C. index (Table II); assay type: cell-based; details: for MIC: Escherichia coli
Method: The halogenated peptides alone, the antibiotic alone or mixtures of the halogenated peptides and selected antibiotics are prepared in sterile concentrated aqueous solutions at the desired ratios. Serial dilutions are made to give a range of concentrations of the test substances. Samples of the dilutions are mixed with an appropriate sterile synthetic medium in test tubes. The tubes are then inoculated with an appropriate test organism and incubated at 35°-37° C. for 16-20 hours. Minimum inhibitory concentrations, i.e., that concentration which inhibits visible growth, are read and the fractional inhibitory concentration indices (F.I.C.) are calculated. In all instances, E. coli (Juhl) was used as the infecting microorganism.

[3] = peptide:D-cycloserine ratio 1:1
[4] = peptide:D-cycloserine ratio 1:8
[5] = peptide:D-cycloserine ratio 8:1
[6] = combination with D-cycloserine, ratio Pep/Antib. 1:1, read-out: MIC ppm Pep/Antib., peptide part
[7] = combination with D-cycloserine, ratio Pep/Antib. 1:8, read-out: MIC ppm Pep/Antib., peptide part
[8] = peptide alone, E. coli (Juhl), 35-37° C., 16-20 hours, read-out: MIC ppm Peptide
[9] = combination with D-cycloserine, ratio Pep/Antib. 1:1
[10] = combination with D-cycloserine, ratio Pep/Antib. 1:8
[11] = combination with D-cycloserine, ratio Pep/Antib. 8:1
[12] = combination with cephalothin, ratio Pep/Antib. 1:1

## N[C@@H]1CON=C1O [D-cycloserine, reference compound]
E. coli (305-101); mice infected i.p. with E. coli (305-101), dosed subcutaneously, 7 days survival, D-cycloserine alone
  CD50 (mg/kg) Cycloserine: 63 mg/kg
E. coli (Juhl) [1]
  MIC: 12.5 µg/mL
E. coli 6880
  MIC: 6.2 µg/mL
Strep. pyrogenes (C 203); mice infected i.p. with Strep. pyrogenes (C 203), dosed subcutaneously, 7 days survival, D-cycloserine alone
  CD50 (mg/kg) Cycloserine: > 100 mg/kg

## Br.C[C@H](N)C(=O)N[C@H](CF)C(=O)O [Example 1, L-alanyl-β-fluoro-D-alanine hydrobromide]
S. aureus (Smith)
  F.I.C. Index: < 0.37
  CD50 (mg/kg) Combination: < 3.1 mg/kg
  CD50 (mg/kg) Peptide: 9.2 mg/kg
E. coli (305-101); E. coli (305-101) in mice, dipeptide:D-cycloserine 10:1
  F.I.C. Index: 0.90
E. coli (305-101); E. coli (305-101) in mice, dipeptide:D-cycloserine 10:1, amount of peptide only listed, D-cycloserine is 10% of it
  CD50 (mg/kg) Combination: 25 mg/kg
E. coli (305-101); mice infected i.p. with E. coli (305-101), dosed subcutaneously, 7 days survival, peptide alone
  CD50 (mg/kg) Peptide: 26 mg/kg
E. coli (Juhl) [1]
  MIC: > 800 µg/mL
E. coli (Juhl) [1]; [3]
  M.I.C. of combination, D-cycloserine part: 0.2 ppm
  M.I.C. of combination, peptide part: 0.2 ppm
E. coli (Juhl) [1]; [4]
  M.I.C. of combination, D-cycloserine part: 1.56 ppm
  M.I.C. of combination, peptide part: 0.2 ppm
E. coli (Juhl) [1]; [5]
  M.I.C. of combination, D-cycloserine part: 0.05 ppm
  M.I.C. of combination, peptide part: 0.39 ppm
E. coli 6880
  MIC: > 800 µg/mL
E. coli 6880; [3]
  M.I.C. of combination, D-cycloserine part: 0.1 ppm
  M.I.C. of combination, peptide part: 0.1 ppm
E. coli 6880; [4]
  M.I.C. of combination, D-cycloserine part: 0.78 ppm
  M.I.C. of combination, peptide part: 0.1 ppm
E. coli 6880; [5]
  M.I.C. of combination, D-cycloserine part: 0.05 ppm
  M.I.C. of combination, peptide part: 0.39 ppm
Strep. pyrogenes (C 203); Strep. pyrogenes (C 203) in mice, dipeptide:D-cycloserine 10:1
  F.I.C. Index: 0.60
Strep. pyrogenes (C 203); Strep. pyrogenes (C 203) in mice, dipeptide:D-cycloserine 10:1, amount of peptide only listed, D-cycloserine is 10% of it
  CD50 (mg/kg) Combination: 10.9 mg/kg
Strep. pyrogenes (C 203); mice infected i.p. with Strep. pyrogenes (C 203), dosed subcutaneously, 7 days survival, peptide alone
  CD50 (mg/kg) Peptide: 17.8 mg/kg
E. coli (Juhl) [2]; [6]
  MIC: 0.2 µg/mL
E. coli (Juhl) [2]; [7]
  MIC: 0.2 µg/mL
E. coli (Juhl) [2]; combination with D-cycloserine, ratio Pep/Antib. 8:1, read-out: MIC ppm Pep/Antib., peptide part
  MIC: 0.39 µg/mL
E. coli (Juhl) [2]; [8]
  MIC: > 800 µg/mL
E. coli (Juhl) [2]; [9]
  F.I.C. Index: 0.02
  MIC ppm Pep/Antib., antibiotic part: 0.2 ppm
E. coli (Juhl) [2]; [10]
  F.I.C. Index: 0.12
  MIC ppm Pep/Antib., antibiotic part: 1.56 ppm
E. coli (Juhl) [2]; [11]
  F.I.C. Index: 0.004
  MIC ppm Pep/Antib., antibiotic part: 0.05 ppm

## C[C@H](N)C(=O)N[C@H](CCl)C(=O)O [Example 2, L-alanyl-β-chloro-D-alanine]
S. aureus (Smith)
  F.I.C. Index: 0.34
  CD50 (mg/kg) Combination: 35 mg/kg
  CD50 (mg/kg) Peptide: 170 mg/kg
E. coli (Juhl) [1]
  MIC: > 800 µg/mL
E. coli (Juhl) [1]; [3]
  M.I.C. of combination, D-cycloserine part: 0.78 ppm
  M.I.C. of combination, peptide part: 0.78 ppm
E. coli (Juhl) [1]; [4]
  M.I.C. of combination, D-cycloserine part: 1.56 ppm
  M.I.C. of combination, peptide part: 0.2 ppm
E. coli (Juhl) [1]; [5]
  M.I.C. of combination, D-cycloserine part: 0.78 ppm
  M.I.C. of combination, peptide part: 0.62 ppm
E. coli 6880
  MIC: > 800 µg/mL
E. coli 6880; [3]
  M.I.C. of combination, D-cycloserine part: 0.78 ppm
  M.I.C. of combination, peptide part: 0.78 ppm
E. coli 6880; [4]
  M.I.C. of combination, D-cycloserine part: 0.78 ppm
  M.I.C. of combination, peptide part: 0.1 ppm
E. coli 6880; [5]
  M.I.C. of combination, D-cycloserine part: 0.39 ppm
  M.I.C. of combination, peptide part: 3.1 ppm
E. coli (Juhl) [2]; [6]
  MIC: 0.78 µg/mL
E. coli (Juhl) [2]; [7]
  MIC: 0.2 µg/mL
E. coli (Juhl) [2]; combination with cephalothin, ratio Pep/Antib. 1:1, read-out: MIC ppm Pep/Antib., peptide part
  MIC: 3.1 µg/mL
E. coli (Juhl) [2]; [8]
  MIC: > 800 µg/mL
E. coli (Juhl) [2]; [9]
  F.I.C. Index: 0.06
  MIC ppm Pep/Antib., antibiotic part: 0.78 ppm
E. coli (Juhl) [2]; [10]
  F.I.C. Index: 0.12
  MIC ppm Pep/Antib., antibiotic part: 1.56 ppm
E. coli (Juhl) [2]; [12]
  F.I.C. Index: 0.50
  MIC ppm Pep/Antib., antibiotic part: 3.1 ppm

## CC(C)[C@H](N)C(=O)N[C@H](CF)C(=O)O [Example 3, L-Val-βF-D-Ala]
S. aureus (Smith)
  F.I.C. Index: 0.15
  CD50 (mg/kg) Combination: 1.0 mg/kg
  CD50 (mg/kg) Peptide: 10 mg/kg
